According to PubChem BioAssay (NCI):
Values joined by “and” are separate entries in the source; they are usually repeats but may differ in a detail not shown here. Equal entries are not always repeated.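 Growth conditions: 96-well plates. Treatment: test compound, 48 hours, 5 concentrations. Analysis: linear interpolation between bracketing concentrations; unreached endpoints set to highest concentration. The concentration for 50% growth inhibition is given as GI50. TGI is the concentration that stops growth completely.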

What was measured:
Assay in all cases: NCI-60 cell line screen, 48 h
[1] = system: SNB-78 CNS
[2] = system: DMS 273 small cell lung
[3] = system: KM20L2 colon
[4] = system: M19-MEL melanoma
[5] = system: RXF-631 renal
[6] = system: HOP-18 NSCLC
[7] = system: HS 578T breast
[8] = system: DU-145 prostate
[9] = system: MDA-MB-435
[10] = system: PC-3 prostate
[11] = system: NCI/ADR-RES ovarian

| SMILES | TGI [1] [µM] | TGI [2] [µM] | TGI [3] [µM] | TGI [4] [µM] | TGI [5] [µM] | TGI [6] [µM] | TGI [7] | TGI [8] [µM] | TGI [9] | TGI [10] | GI50 [7] | GI50 [9] [µM] | GI50 [10] [µM] | GI50 [11] | TGI [11] [µM] |
| --- | --- | --- | --- | --- | --- | --- | --- | --- | --- | --- | --- | --- | --- | --- | --- |
| COC(=O)C(C)Oc1ccc(O)cc1 (stereo not drawn) | > 100 | > 100 | > 100 | > 100 | > 100 | > 100 | – | – | – | – | – | – | – | – | – |
| O=C(N/C(=C\c1ccc(F)cc1)c1nc2ccccc2[nH]1)c1ccccc1 | > 100 | – | > 100 | > 100 | > 100 | > 100 | – | – | – | – | – | – | – | – | – |
| C=CCO[C@H]1CC[C@@]2(C)C(CC[C@]3(C)C2CC=C2[C@@H]4[C@@H](C)C(C)CC[C@]4(C(=O)O)CCC23C)C1(C)C (stereo partly drawn) | 35.4 | – | 33.2 | 35.7 | 28.9 | 37.1 | – | – | – | – | – | – | – | – | – |
| COC(=O)C(=O)C(C#N)c1c(Cl)cccc1Cl (stereo not drawn) | > 100 | > 100 | > 100 | > 100 | > 100 | – | – | – | – | – | – | – | – | – | – |
| O=C1C(=Cc2ccc(F)cc2)C(=O)c2ccccc21 | – | > 100 | > 100 | > 100 | > 100 | – | – | – | – | – | – | – | – | – | – |
| NC(=O)c1nc(-c2ccc(Cl)c(Cl)c2)nc2ccccc12 | > 100 | > 24.9 | > 100 | > 100 | – | > 100 | – | – | – | – | – | – | – | – | – |
| CCOC(=O)C(=O)Nc1nc2ccc(C)cc2s1 | > 100 | > 100 | > 100 | > 100 | > 100 | – | – | – | – | – | – | – | – | – | – |
| Cc1nc(-n2nc(-c3ccccc3)cc2-c2ccccc2)sc1C(=O)CC(=O)C(=O)Nc1ccc(O)cc1 | > 100 | > 100 | > 100 | – | > 100 | > 100 | – | – | – | – | – | – | – | – | – |
| O=C(CCc1cc(-c2ccc(F)cc2)n[nH]1)N(Cc1ccccc1)Cc1ccccc1 | > 100 | > 100 | > 100 | > 100 | – | > 100 | – | – | – | – | – | – | – | – | – |
| COc1cc(CCc2ccncc2)cc(OC)c1OC | > 100 | > 100 | > 100 | > 100 | > 100 | > 100 | – | – | – | – | – | – | – | – | – |
| CC/C(C)=C1\CCC(CN(C)C)C1=O (stereo not drawn) | 54.8 | 33.3 | 47.5 | 32.6 | 34.4 | 32.2 | – | – | – | – | – | – | – | – | – |
| Cc1ccc(C)c(NC(=O)C(=O)Nn2c(=S)[nH]c3ccccc3c2=O)c1 | > 100 | > 100 | > 100 | – | > 100 | > 100 | – | – | – | – | – | – | – | – | – |
| CC1OC(=O)N2CCC=CC12 (stereo not drawn) | > 100 | > 100 | > 100 | > 100 | > 100 | > 100 | – | – | – | – | – | – | – | – | – |
| N#C/C(=C1\OC(N)=C(c2ccc(Cl)cc2)C1=O)c1ccc(Cl)cc1 | 31.4 | 26.7 | 33 | 31.4 | – | 30.8 | – | – | – | – | – | – | – | – | – |
| O/N=C1\C(=C\c2ccc3c(c2)OCCO3)CCCC1C(NO)c1ccc2c(c1)OCCO2 (stereo not drawn) | > 100 | 43 | 35.6 | 52.5 | > 100 | > 100 | – | – | – | – | – | – | – | – | – |
| C[C@H]1CCC2C(OC(=O)[C@@H]2CN(C)C)[C@]2(C)C(=O)C=CC12O (stereo partly drawn) | – | 18.8 | 17.7 | 20.3 | 3.11 | 38.9 | > 100 µM | 23.2 | 22.4 µM | 44.9 µM | – | – | – | – | – |
| N#CC(C#N)C(c1ccccc1)c1ccccc1 | > 100 | > 100 | > 100 | – | > 100 | > 100 | – | – | – | – | – | – | – | – | – |
| CN1C/C(=C\c2ccc(C(=O)O)cc2)C(=O)/C(=C/c2ccc(C(=O)O)cc2)C1 | > 100 | > 100 | > 100 | > 100 | > 100 | > 100 | – | – | – | – | – | – | – | – | – |
| NC1=Nc2ccccc2Sc2ccccc21 | > 100 | > 100 | > 100 | > 100 | – | > 100 | – | – | – | – | – | – | – | – | – |
| COc1ccc(/C=C2/CSC/C(=C/c3ccc(OC)c(OC)c3)C2=O)cc1OC | > 100 | 3.09 | 6.53 | 6.63 | 6.41 | 17.3 | – | 9.07 | > 100 µM | 11.7 µM | – | – | – | – | – |
| Cc1nc(-n2nc(-c3ccccc3)cc2-c2ccccc2)sc1C(=O)/C=C/c1cccc([N+](=O)[O-])c1 | > 100 | 83.1 | 40.8 | 30.4 | – | 24.5 | – | – | – | – | – | – | – | – | – |
| CCN1CCC(O)(/C=C/c2ccccc2)C(C(=O)/C=C/c2ccccc2)C1 (stereo not drawn) | 11.5 | 3.27 | 7.22 | 4.18 | 15 | 18.1 | – | – | – | – | – | – | – | – | – |
| C#C[C@@H](CCCC)OC(=O)N[C@H](C)c1ccccc1 | > 100 | > 100 | > 100 | > 100 | > 100 | > 100 | – | – | – | – | – | – | – | – | – |
| COC(=O)Nc1nc2ccc(C(=O)c3cccs3)cc2[nH]1 | > 63.1 | > 100 | 0.0377 | > 100 | > 61.8 | > 100 | 50.9 µM and > 100 µM | 1.5 | 0.158 µM and 0.102 µM | 14.2 µM and > 100 µM | 0.0244 µM and 0.0882 µM | 0.029 | 0.246 | 0.0388 µM and 0.0664 µM | > 100 |
| CCOC(=O)CC(C)C1(C=O)CCCCC1=O (stereo not drawn) | > 100 | > 100 | > 100 | > 100 | > 100 | > 100 | – | – | – | – | – | – | – | – | – |
| C=CCCC(=O)CC(=O)OCc1ccccc1 | > 100 | > 100 | > 100 | > 100 | > 100 | > 100 | – | – | – | – | – | – | – | – | – |
| COC1CC(n2cc(F)c(N)nc2=O)OC1CO (stereo not drawn) | > 100 | > 100 | > 100 | – | > 100 | > 100 | – | – | – | – | – | – | – | – | – |
| COC(=O)C(/C(=N\O)C(=O)Nc1ccc(Br)cc1)c1nc2ccccc2[nH]c1=O (stereo not drawn) | > 100 | > 100 | > 100 | 68.2 | > 100 | > 100 | – | – | – | – | – | – | – | – | – |
